Data as given in patent US20140227174A1, “SKIN PERMEATING AND CELL ENTERING (SPACE) PEPTIDES AND METHODS OF USE THEREFOR” (CONVOY THERAPEUTICS, priority 2013, published 2014).
Residues, ends and D or L forms follow the SMILES beside them.

Assays:
Type in all cases: in vitro ADME
[1] = test system: EPIDERM™ tissue; test: Penetration of SPACE Peptide formulations across EPIDERM tissue; conditions: 100 μl on 2 cm^2, 24 hours
Description: Additional experiments performed using EPIDERM™ tissue confirmed penetration of SPACE Peptide across the skin. For this purpose, the SPACE Peptide formulations were prepared using the methods described herein above. EPIDERM™ tissues were obtained from MatTek Corporation (Ashland, Mass.). […] A 100 microliter formulation applied on EPIDERM™ tissue for 24 hours was determined to deliver 25% of SPACE Peptide across EPIDERM™ tissue.
FIG. 8C is a bar graph showing delivery of a fluorescent label to EPIDERM™ (left column of each pair) and a pig skin model (right column of each pair) using different formulations the contain SPACE Peptides. A 100 μl sample of various formulations was placed on a 2 cm^2 skin sample and penetration was tested 24 hours after application.

[2] = test system: Full thickness pig skin
Description: Full thickness pig skin (Lampire Biological Laboratories, Pipersville, Pa.) was used. The skin was stored at −80° C. and defrosted immediately prior to use. Briefly, the skin was allowed to thaw with the stratum corneum (SC) side up left open to the atmosphere. Skin disks of 36 mm were punched out. The subcutaneous fatty tissue was carefully removed from the dermis, and the hair shaft was clipped to no more than 4 mm. The skin pieces were cleaned with PBS (pH 7.4). Subsequently, the integrity of the skin disks were checked with a skin conductivity measurement to ensure that samples were free from any surface irregularity such as tiny holes or crevices in the portion that was used for skin penetration and deposition studies.
In vitro skin penetration and deposition experiments of different liposomal systems containing a SPACE Peptide labeled with fluorescein isothiocyanate (FITC-SPACE), CsA, or fluorescent hyaluronidase (Fluorescein-HA) were run in Franz diffusion cells occlusively and maintained at 37±1° C. throughout experiments using an oven. The effective penetration area and receptor cell volume were 1.77 cm^2 and 12.0 ml, respectively. The acceptor compartment was filled with PBS pH 7.4 as the receptor medium. Each test formulation was investigated in triplicate. Skin disks were mounted with the SC side up and the donor compartment left dry and open to atmosphere for 0.5 hour before test formulation application. Caution was taken to remove all air bubbles between the underside of the skin (dermis) and the acceptor solution. The skin was stretched in all directions to avoid the presence of furrows.
100-200 μL of the test formulation was applied to skin surface using a pipette. The experiments were carried out under occlusion with light protection. The incubation time of the skin with each test formulation was 24 hours. At the end of an experiment, a sample of 1-3 mL was withdrawn from the receptor phase for concentration measurement by fluorescence assay using a micro-plate reader (SAFIRE, XFLUOR4, V4.50, Tecan Group Ltd, NY, United States of America) for fluorescence. In the case of CsA experiments, a sample of 3 ml was withdrawn from the receptor phase for ^3H-CsA measurement by a liquid scintillation counter (TRI-GARB 2100TR, Packard Instrument Company, Downers Grove, Ill.). The formulations were removed from the skin by washing five times with PBS (pH 7.4). After cleaning, the skin was transferred onto a device for tape-stripping the SC.
The stratum corneum was removed by striping with an adhesive tape (SCOTCH® Transparent Tape, 3M Corporate, St. Paul, Minn.). In order to avoid any furrows, which could be a reason for false results of the stripping procedure, the skin was stretched and mounted on cork discs as mentioned previously. The skin was covered with a TEFLON® mask with a central hole of 15 mm in diameter. Adhesive tape was put onto the skin and a weight of 2 kg was placed on the tape for 10 seconds. The tape was rapidly removed with forceps and transferred into a glass vial of suitable size. Ten stripping procedures were performed consecutively. For analytical reasons, the stripped tapes were collected in glass vials according the following scheme: vial 1=strip 1st, vial 2=strip 2nd-5th, and vial 3=strip 6th-10th. After tape-stripping, the epidermis sheet was separated from the dermis with a sterile surgical scalpel and cut into small pieces and collected into a glass vial. […]

[3] = test system: Full thickness pig skin; test: In vitro delivery of siRNA to skin in Franz diffusion cells; conditions: 100 microliters of 25 nmole/ml; area of 2 sq. cm; 24 hours
Description: Full thickness pig skin (Lampire Biological Laboratories, Pipersville, Pa.) was used. The skin was stored at −80° C. and defrosted immediately prior to use. Briefly, the skin was allowed to thaw with the stratum corneum side up left open to the atmosphere for at least half hour. Skin disks of 36 mm were punched out. The subcutaneous fatty tissue was carefully removed from the dermis, and the hair shaft was cut off to no more than 4 mm. The skin piece was cleaned with PBS (pH 7.4). […]
In vitro skin penetration and deposition experiments of different formulations were run in Franz diffusion cells occlusively and maintained at 37±1° C. throughout the experiments. […] At the end of an experiment, a sample of 1 ml was withdrawn from the receptor phase for concentration measurement by fluorescence assay using a micro-plate reader (SAFIRE, XFLUOR4, V4.50, Tecan Group Ltd, NY, US). […]
The stratum corneum was removed by striping with an adhesive tape (SCOTCH® Transparent Tape, 3M Corporate, St. Paul, Minn.). […] The supernatant were withdrawn, diluted if necessary and analyzed by fluorescence measurement.
The concentrations of FAM-GAPDH-siRNA and FAM-GAPDH-siRNA-SPACE-Peptide conjugates were determined by fluorescence spectroscopy. Fluorescence detection was performed at an excitation of 495 nm and an emission of 525 nm for both conjugates. […]

[4] = test system: epidermis and dermis from porcine skin; test: Partitioning of SPACE Peptide into isolated epidermis and dermis; conditions: ratio of concentrations in skin layer and surrounding PBS; aqueous solution of SPACE Peptide; after 24 hours
Description: FIG. 5 is a schematic representation of the measurement of partitioning of SPACE peptide. FITC-SPACE peptide was incubated epidermis-SC and dermis for […] at 37° C. and the amount of SPACE peptide partitioned into the tissue was measured.
In these experiments, epidermis and dermis from porcine skin were isolated and placed in separate vials in an aqueous solution of SPACE Peptide of SEQ ID NO: 13. The amount of SPACE Peptide that partitioned into each skin layer was measured after 24 hours. The ratio of concentrations in skin layers and surrounding PBS was used to determine the partition coefficient.

C[C@H](NC(=O)CCCCCNC(=S)Nc1ccc2c(c1)C(=O)OC21c2ccc(O)cc2Oc2cc(O)ccc21)C(=O)N[C@H]1CSSC[C@@H](C(=O)NCC(=O)O)NC(=O)[C@H](CCC(N)=O)NC(=O)[C@H](Cc2c[nH]cn2)NC(=O)[C@H](CCC(N)=O)NC(=O)[C@H]([C@@H](C)O)NC(=O)[C@H](CO)NC(=O)CNC(=O)[C@H]([C@@H](C)O)NC1=O [FITC-SPACE] (HELM PEPTIDE1{[O=C1OC2(c3ccc(O)cc3Oc3cc(O)ccc32)c2ccc(NC(=S)[*:2])cc21].[O=C(CCCCCN[*:1])[*:2]].A.C.T.G.S.T.Q.H.Q.C.G}$PEPTIDE1,PEPTIDE1,4:R3-12:R3$$$V2.0; C-terminus assumed)
penetration into EPIDERM tissue (FIG. 8C) [1]: penetrated into the EPIDERM™ tissue

Hyaluronic acid [HA]
HA delivery in the epidermis [2]: less than 0.5 microgram per sq. cm
HA delivery, formulation made at pH 8 versus otherwise identical formulation at pH 4 [2]: delivered less HA
amount of HA in the skin compared with the receiver compartment [2]: significantly higher
topically-applied HA penetrating into skin [2]: about 17%

5′-FAM-GACGUAAACGGCCACAAGUUC-3′ [siRNA aqueous solution]
penetration of siRNA into skin (applied dose) [3]: 3.3%

C[C@H](N)C(=O)N[C@H]1CSSC[C@@H](C(=O)NCC(=O)O)NC(=O)[C@H](CCC(N)=O)NC(=O)[C@H](Cc2c[nH]cn2)NC(=O)[C@H](CCC(N)=O)NC(=O)[C@H]([C@@H](C)O)NC(=O)[C@H](CO)NC(=O)CNC(=O)[C@H]([C@@H](C)O)NC1=O [SPACE Peptide] (HELM PEPTIDE1{A.C.T.G.S.T.Q.H.Q.C.G}$PEPTIDE1,PEPTIDE1,2:R3-10:R3$$$V2.0; N-terminus and C-terminus assumed)
partition coefficient in the dermis [4]: 4.3
partition coefficient in the epidermis [4]: 9.8
penetration of FITC label into skin layers (summary of FIG. 8B) [2]: enhanced penetration of FITC-SPACE Peptide formulations
